Structures are written as SMILES. The source made the active and inactive calls.

Series [1] is described as follows: AUC in mouse at 2 mg/kg, iv by LC/MS/MS analysis. Type of series: ADME, organism-based. The following applies: in vivo.
A short description of series [2]: Volume of distribution at steady state in rat at 1 mg/kg, iv or 2 mg/kg, po by LC/MS/MS analysis. Type of series: ADME, organism-based. The following applies: in vivo, read-out: Vdss.
Series [3] deals with T1, Peroxisome proliferator-activated receptor alpha (Homo sapiens) (UniProt Q07869).
T1 sequence (whole entry): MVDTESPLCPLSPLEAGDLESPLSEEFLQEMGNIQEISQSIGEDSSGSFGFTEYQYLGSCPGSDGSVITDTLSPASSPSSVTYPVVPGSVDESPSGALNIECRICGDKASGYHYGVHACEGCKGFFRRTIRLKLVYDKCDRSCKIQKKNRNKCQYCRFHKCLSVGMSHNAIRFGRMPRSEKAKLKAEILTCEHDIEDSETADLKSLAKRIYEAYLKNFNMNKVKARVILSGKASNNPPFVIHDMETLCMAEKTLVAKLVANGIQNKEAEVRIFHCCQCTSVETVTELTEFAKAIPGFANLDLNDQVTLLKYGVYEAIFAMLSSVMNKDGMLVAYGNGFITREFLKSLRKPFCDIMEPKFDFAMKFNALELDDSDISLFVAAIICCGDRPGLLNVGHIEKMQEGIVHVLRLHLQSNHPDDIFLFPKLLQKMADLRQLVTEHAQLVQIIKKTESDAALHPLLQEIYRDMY
The series can be described thus: Binding affinity to human PPARalpha.

The nature of series [4]: AUC in rhesus monkey at 0.5 mg/kg, iv by LC/MS/MS analysis. Type of series: ADME, organism-based, Macaca mulatta. The following applies: in vivo.
Series [5] in a line: Plasma clearance in mouse at 2 mg/kg, iv or 10 mg/kg, po by LC/MS/MS analysis. In kind it is ADME, organism-based.
Series [6] in a line: Antidiabetic activity in C57BL/6 mouse at 30 mg/kg, po administered 60 mins via gavage prior to dextrose challenge measured up to 120 mins post dextrose challenge by oGTT. Type of series: functional, organism-based.
Series [7] is described as follows: Oral bioavailability in dog at 2 mg/kg by LC/MS/MS analysis. In kind it is ADME, organism-based, Canis lupus familiaris. The following applies: in vivo.
Series [8] concerns the target Voltage-dependent L-type calcium channel subunit alpha-1C (Homo sapiens, UniProt Q13936). The series can be described thus: Inhibition of Cav1.2 (unknown origin).
The target in series [9] is T2, Peroxisome proliferator-activated receptor delta (Homo sapiens) (UniProt Q03181).
T2 sequence (whole entry): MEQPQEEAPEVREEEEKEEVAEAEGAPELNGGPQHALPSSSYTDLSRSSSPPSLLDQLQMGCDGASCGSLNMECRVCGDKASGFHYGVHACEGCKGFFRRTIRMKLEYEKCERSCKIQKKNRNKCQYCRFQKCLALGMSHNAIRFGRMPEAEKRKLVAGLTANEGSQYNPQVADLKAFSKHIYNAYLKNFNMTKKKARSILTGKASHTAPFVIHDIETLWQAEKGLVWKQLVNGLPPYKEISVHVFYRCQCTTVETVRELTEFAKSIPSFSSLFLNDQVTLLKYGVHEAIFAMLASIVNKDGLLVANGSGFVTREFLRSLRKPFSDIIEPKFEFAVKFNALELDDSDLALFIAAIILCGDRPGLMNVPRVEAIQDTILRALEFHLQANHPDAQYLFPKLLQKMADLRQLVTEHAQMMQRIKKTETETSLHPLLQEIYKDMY
Description: Binding affinity to human PPARdelta.

Series [10] can be described thus: Antidiabetic activity in C57BL/6 mouse administered 60 mins via oral gavage prior to dextrose challenge measured up to 120 mins post dextrose challenge by oGTT. Type of series: functional.
Series [11] concerns Mus musculus. Description: Decrease in insulin levels in diet-induced obese mouse at 30 mg/kg, po qd administered daily via gavage for 14 days measured on day 14 post dose. In kind it is functional, organism-based.
The target in series [12] is Sodium channel protein type 5 subunit alpha (Homo sapiens, UniProt Q14524). Description: Inhibition of Nav1.5 (unknown origin).
Series [13] can be described thus: Half life in rat at 1 mg/kg, iv or 2 mg/kg, po by LC/MS/MS analysis. Type of series: ADME, organism-based. The following applies: in vivo.
Series [14] can be described thus: Volume of distribution at steady state in rhesus monkey at 0.5 mg/kg, iv or 1 mg/kg, po by LC/MS/MS analysis. The following applies: in vivo, read-out: Vdss. Type of series: ADME, organism-based, Macaca mulatta.
Series [15] is described as follows: AUC in rat at 1 mg/kg, iv by LC/MS/MS analysis. In kind it is ADME, organism-based. The following applies: in vivo.
A short description of series [16]: Volume of distribution at steady state in mouse at 2 mg/kg, iv or 10 mg/kg, po by LC/MS/MS analysis. In kind it is ADME, organism-based. The following applies: in vivo, read-out: Vdss.
A further series has as its target Cytochrome P450 3A4 (Homo sapiens, UniProt P08684). The series can be described thus: Inhibition of human CYP3A4. Type of series: ADME.
The test system of series [17] is Mus musculus. The series can be described thus: Antidiabetic activity in diet-induced obese mouse assessed as reduction in homeostatic model assessment of insulin resistance at 30 mg/kg, po qd administered daily via gavage for 14 days measured on day 14 post dose. Type of series: functional, organism-based.
The target in series [18] is Free fatty acid receptor 1 (Homo sapiens, UniProt O14842). The series can be described thus: Agonist activity at human GPR40 expressed in HEK293 cells assessed as induction of IP1 accumulation after 60 mins by HTRF assay. In kind it is functional, cell-based. For orientation: Time-resolved FRET reads energy transfer from a long-lived donor to a nearby acceptor.
Sequence of Free fatty acid receptor 1 (O14842 whole entry): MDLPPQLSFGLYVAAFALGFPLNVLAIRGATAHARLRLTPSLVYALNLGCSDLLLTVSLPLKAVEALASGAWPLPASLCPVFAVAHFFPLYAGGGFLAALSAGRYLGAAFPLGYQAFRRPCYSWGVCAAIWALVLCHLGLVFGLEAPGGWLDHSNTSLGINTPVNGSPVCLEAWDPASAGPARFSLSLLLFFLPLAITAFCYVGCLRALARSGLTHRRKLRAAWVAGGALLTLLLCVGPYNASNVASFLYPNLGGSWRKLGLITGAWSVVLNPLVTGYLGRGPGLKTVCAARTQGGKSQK

Sequence of Sodium channel protein type 5 subunit alpha (Q14524 whole entry): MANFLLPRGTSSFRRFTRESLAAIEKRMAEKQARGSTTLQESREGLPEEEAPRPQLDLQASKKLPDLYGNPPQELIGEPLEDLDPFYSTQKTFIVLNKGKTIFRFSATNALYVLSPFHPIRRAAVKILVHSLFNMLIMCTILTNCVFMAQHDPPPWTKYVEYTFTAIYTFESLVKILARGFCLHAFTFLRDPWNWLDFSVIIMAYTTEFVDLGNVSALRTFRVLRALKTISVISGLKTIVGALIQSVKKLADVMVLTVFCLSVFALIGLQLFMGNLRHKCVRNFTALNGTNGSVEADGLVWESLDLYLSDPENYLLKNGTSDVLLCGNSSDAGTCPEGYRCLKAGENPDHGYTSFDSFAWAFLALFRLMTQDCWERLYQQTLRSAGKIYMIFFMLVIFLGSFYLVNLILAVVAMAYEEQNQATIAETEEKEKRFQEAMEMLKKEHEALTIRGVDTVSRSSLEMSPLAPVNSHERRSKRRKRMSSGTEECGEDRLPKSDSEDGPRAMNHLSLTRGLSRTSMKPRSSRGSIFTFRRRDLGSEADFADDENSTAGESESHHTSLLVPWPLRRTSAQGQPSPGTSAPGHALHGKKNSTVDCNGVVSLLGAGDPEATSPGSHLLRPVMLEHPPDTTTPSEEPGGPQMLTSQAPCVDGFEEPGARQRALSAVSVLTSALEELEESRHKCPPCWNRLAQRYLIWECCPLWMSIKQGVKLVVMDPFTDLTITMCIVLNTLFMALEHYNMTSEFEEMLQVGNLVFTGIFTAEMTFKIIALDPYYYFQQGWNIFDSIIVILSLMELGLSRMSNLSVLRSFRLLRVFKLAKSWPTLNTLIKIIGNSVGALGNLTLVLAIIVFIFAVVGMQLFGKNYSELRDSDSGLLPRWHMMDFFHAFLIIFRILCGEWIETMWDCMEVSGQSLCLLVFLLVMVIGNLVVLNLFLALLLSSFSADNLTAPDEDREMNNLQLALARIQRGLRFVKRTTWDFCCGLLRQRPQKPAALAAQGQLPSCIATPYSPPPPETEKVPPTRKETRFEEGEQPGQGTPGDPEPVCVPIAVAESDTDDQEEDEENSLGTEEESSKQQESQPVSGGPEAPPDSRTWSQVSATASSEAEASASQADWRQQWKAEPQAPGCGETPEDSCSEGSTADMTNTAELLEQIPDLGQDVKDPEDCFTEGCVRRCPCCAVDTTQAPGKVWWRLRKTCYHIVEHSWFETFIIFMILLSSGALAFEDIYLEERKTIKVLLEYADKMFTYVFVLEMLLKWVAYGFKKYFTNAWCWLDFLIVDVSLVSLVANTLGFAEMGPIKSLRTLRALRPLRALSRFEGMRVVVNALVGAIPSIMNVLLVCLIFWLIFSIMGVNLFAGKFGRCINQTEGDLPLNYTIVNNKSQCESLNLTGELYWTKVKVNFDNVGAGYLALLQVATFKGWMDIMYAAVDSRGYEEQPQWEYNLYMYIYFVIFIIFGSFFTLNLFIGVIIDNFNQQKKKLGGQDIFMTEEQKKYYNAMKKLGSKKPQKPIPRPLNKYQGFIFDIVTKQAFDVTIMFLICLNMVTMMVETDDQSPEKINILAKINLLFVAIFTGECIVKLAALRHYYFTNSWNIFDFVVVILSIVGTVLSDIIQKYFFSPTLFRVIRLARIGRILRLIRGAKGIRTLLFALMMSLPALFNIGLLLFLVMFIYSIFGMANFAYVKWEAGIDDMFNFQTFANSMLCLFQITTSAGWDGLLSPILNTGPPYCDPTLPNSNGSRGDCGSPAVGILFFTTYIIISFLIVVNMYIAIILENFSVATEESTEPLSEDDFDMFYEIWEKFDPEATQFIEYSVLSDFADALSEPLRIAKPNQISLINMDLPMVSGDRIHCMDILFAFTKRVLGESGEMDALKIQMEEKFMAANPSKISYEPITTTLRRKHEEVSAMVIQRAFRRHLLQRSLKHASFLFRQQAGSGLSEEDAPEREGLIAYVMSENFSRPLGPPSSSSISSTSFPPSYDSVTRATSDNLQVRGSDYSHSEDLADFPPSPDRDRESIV
Sequence of Cytochrome P450 3A4 (P08684 whole entry): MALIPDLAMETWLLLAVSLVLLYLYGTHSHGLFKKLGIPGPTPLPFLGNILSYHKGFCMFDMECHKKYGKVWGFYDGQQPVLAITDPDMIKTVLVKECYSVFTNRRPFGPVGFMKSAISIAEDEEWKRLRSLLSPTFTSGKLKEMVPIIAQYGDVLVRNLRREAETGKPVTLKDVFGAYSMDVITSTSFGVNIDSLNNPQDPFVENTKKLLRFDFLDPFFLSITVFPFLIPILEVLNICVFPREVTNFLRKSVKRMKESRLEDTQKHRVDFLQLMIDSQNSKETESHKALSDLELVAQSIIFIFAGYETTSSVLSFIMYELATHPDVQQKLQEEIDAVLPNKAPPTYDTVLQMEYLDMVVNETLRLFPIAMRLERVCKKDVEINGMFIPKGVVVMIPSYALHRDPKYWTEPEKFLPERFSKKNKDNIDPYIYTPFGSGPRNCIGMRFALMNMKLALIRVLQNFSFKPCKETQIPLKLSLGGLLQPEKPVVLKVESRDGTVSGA
Sequence of Voltage-dependent L-type calcium channel subunit alpha-1C (Q13936 whole entry): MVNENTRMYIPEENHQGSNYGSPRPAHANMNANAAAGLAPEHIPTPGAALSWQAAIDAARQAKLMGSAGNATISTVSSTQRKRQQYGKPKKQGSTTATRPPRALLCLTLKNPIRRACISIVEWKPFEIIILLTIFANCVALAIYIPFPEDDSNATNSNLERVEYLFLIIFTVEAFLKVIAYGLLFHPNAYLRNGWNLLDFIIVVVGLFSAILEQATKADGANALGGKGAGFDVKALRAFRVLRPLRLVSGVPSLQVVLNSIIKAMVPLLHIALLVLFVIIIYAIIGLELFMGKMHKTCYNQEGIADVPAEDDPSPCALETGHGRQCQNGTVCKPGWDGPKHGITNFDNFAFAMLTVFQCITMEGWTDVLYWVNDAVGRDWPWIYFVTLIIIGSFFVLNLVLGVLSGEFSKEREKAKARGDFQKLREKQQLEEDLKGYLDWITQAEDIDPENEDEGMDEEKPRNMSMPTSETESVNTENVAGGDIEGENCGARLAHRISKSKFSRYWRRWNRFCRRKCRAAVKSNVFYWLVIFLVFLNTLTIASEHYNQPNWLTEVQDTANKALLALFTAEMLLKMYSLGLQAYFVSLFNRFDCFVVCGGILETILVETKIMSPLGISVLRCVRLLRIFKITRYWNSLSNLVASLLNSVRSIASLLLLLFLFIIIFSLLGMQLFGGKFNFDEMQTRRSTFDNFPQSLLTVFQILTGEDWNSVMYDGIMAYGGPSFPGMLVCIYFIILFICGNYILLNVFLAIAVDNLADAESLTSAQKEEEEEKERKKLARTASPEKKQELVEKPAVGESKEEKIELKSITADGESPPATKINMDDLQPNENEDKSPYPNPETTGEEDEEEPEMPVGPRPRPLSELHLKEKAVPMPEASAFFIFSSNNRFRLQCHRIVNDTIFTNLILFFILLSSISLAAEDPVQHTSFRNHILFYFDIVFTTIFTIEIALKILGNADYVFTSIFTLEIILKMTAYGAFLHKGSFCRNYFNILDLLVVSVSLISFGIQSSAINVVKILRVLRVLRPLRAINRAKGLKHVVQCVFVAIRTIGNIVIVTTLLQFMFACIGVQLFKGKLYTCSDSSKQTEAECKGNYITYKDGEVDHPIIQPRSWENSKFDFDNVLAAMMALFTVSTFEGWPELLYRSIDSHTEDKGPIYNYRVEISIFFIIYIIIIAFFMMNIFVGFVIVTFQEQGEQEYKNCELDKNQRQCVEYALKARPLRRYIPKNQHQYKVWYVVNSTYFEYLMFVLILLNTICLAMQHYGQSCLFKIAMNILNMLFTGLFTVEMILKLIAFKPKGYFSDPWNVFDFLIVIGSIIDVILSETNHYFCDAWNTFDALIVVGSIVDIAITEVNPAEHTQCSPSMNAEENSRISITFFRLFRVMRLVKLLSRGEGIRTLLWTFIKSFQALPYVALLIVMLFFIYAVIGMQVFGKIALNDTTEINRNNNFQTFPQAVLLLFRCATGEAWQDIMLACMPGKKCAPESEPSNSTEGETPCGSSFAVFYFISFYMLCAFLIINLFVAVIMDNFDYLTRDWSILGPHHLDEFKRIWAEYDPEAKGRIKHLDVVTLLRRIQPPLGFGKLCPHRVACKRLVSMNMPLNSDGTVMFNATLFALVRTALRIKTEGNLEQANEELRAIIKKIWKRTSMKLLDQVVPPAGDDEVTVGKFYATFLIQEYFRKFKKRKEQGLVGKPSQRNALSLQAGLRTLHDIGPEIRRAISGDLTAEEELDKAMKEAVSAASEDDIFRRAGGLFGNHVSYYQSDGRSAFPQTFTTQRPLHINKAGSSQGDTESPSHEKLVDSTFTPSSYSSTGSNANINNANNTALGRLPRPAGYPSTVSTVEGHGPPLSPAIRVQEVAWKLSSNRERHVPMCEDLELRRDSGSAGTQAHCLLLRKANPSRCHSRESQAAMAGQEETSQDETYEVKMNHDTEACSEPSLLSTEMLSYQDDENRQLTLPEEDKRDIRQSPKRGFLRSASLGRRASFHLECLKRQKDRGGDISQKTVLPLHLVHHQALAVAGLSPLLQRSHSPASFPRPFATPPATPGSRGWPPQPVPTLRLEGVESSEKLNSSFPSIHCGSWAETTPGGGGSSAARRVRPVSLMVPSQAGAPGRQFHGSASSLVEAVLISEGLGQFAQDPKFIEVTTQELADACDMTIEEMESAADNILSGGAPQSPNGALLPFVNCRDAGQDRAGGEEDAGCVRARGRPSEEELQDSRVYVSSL

`O=C(O)CC1CCC2(CC1)CCN(c1cc(OC(F)(F)F)ccc1Cl)CC2`: the AUC was 14.6 µM·h in series [1], 8.7 µM·h in series [4] and 17.5 µM·h in [15]. Moreover, the Vd in series [2] was found to be 0.4 L/kg; in [14], 1.7 L/kg; in series [16], 8.9 L/kg. Besides, the Activity was over 10 µM in [3], over 10 µM in [9] and “Dose-dependent effect” in [10]. This compound also registered a clearance in series [5] of 8.4 mL/min/kg. Moreover, the outcome (in series [6]; in the series with Mus musculus [11]; with Mus musculus [17]) was Active. For the same compound, the bioavailability in series [7] was determined as 100%. Further, the INH in [8] was 21 µM; in series [12], 13 µM; on Cytochrome P450 3A4, over 48 µM. The compound also gave a half-life in series [13] of 1.4 h. For the same compound, the EC50 in [18] was over 10 µM.

As a reminder, the AUC is the area under the concentration-time curve, a measure of exposure. One may read the bioavailability as the share of a dose that reaches the circulation, judged against a reference dose that is usually intravenous. Usually half-life stands for the time needed for the level to fall by half in the phase considered. Usually EC50 stands for the concentration at which the effect is half-maximal.

For the origin of these results see ChEMBL document CHEMBL3872283, “Design, Synthesis, and Evaluation of Novel and Selective G-protein Coupled Receptor 120 (GPR120) Spirocyclic Agonists” (ACS Med Chem Lett, 2017).
